#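 These data come from cells grown in 96-well plates and exposed to compound for 48 hours at five concentrations. TGI: concentration producing complete growth inhibition.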 Where a SMILES comes first, the peptide text is derived from it. The star is where a group is joined. CH2Cl = ClC*
# Legend:
# Assay in all cases: growth of human tumour cells (NCI), 48 h
# CAKI-1 renal = tested on: CAKI-1 renal
# BT-549 breast = tested on: BT-549 breast
# HCT-15 colon = tested on: HCT-15 colon
# MCF7 breast = tested on: MCF7 breast
# HOP-92 NSCLC = tested on: HOP-92 NSCLC
# HT29 colon = tested on: HT29 colon
# COLO 205 colon = tested on: COLO 205 colon
# NCI-H522 lung = tested on: NCI-H522 lung
# CCRF-CEM leukemia = tested on: CCRF-CEM leukemia
# MOLT-4 leukemia = tested on: MOLT-4 leukemia
# M14 melanoma = tested on: M14 melanoma
# PC-3 prostate = tested on: PC-3 prostate
# NCI-H226 lung = tested on: NCI-H226 lung
# A549 NSCLC = tested on: A549 NSCLC
# ACHN renal = tested on: ACHN renal
# OVCAR-8 ovarian = tested on: OVCAR-8 ovarian
# MDA-N = tested on: MDA-N
# SNB-75 CNS = tested on: SNB-75 CNS
# SW-620 colon = tested on: SW-620 colon
# A498 renal = tested on: A498 renal
# SK-OV-3 ovarian = tested on: SK-OV-3 ovarian
# DU-145 prostate = tested on: DU-145 prostate
# SK-MEL-5 melanoma = tested on: SK-MEL-5 melanoma
# SF-295 CNS = tested on: SF-295 CNS
# SF-268 CNS = tested on: SF-268 CNS
# HOP-62 NSCLC = tested on: HOP-62 NSCLC
# SK-MEL-28 melanoma = tested on: SK-MEL-28 melanoma
# OVCAR-3 ovarian = tested on: OVCAR-3 ovarian
# EKVX NSCLC = tested on: EKVX NSCLC
# UACC-257 melanoma = tested on: UACC-257 melanoma
# MALME-3M melanoma = tested on: MALME-3M melanoma
# RPMI-8226 leukemia = tested on: RPMI-8226 leukemia
# TK-10 renal = tested on: TK-10 renal
# NCI-H460 lung = tested on: NCI-H460 lung
# LOX IMVI melanoma = tested on: LOX IMVI melanoma
# HL-60(TB) leukemia = tested on: HL-60(TB) leukemia
# UACC-62 melanoma = tested on: UACC-62 melanoma
# K-562 leukemia = tested on: K-562 leukemia
# MDA-MB-231 breast = tested on: MDA-MB-231 breast
# SK-MEL-2 melanoma = tested on: SK-MEL-2 melanoma
# HCC-2998 colon = tested on: HCC-2998 colon
# KM12 colon = tested on: KM12 colon
# SF-539 CNS = tested on: SF-539 CNS
# SR leukemia = tested on: SR leukemia
# U251 CNS = tested on: U251 CNS
# OVCAR-5 ovarian = tested on: OVCAR-5 ovarian
# SNB-19 CNS = tested on: SNB-19 CNS
# UO-31 renal = tested on: UO-31 renal
# IGROV1 ovarian = tested on: IGROV1 ovarian
# NCI/ADR-RES ovarian = tested on: NCI/ADR-RES ovarian
# HS 578T breast = tested on: HS 578T breast
# HCT-116 colon = tested on: HCT-116 colon
# NCI-H23 lung = tested on: NCI-H23 lung
# T-47D breast = tested on: T-47D breast
# MDA-MB-435 = tested on: MDA-MB-435
# SN12C renal = tested on: SN12C renal
# RXF 393 renal = tested on: RXF 393 renal
# 786-0 renal = tested on: 786-0 renal
# OVCAR-4 ovarian = tested on: OVCAR-4 ovarian
smiles,measurement,setting,value
CC(=O)NC(CC(C)C)C(=O)NC(Cc1ccccc1)C(=O)CCl (stereo not drawn) (Ac-Leu-Phe-CH2Cl; configuration not given here),TGI,CAKI-1 renal,32.1 µM
same,TGI,BT-549 breast,28.4 µM
same,TGI,HCT-15 colon,13.2 µM
same,TGI,MCF7 breast,22.8 µM
same,TGI,HOP-92 NSCLC,16.5 µM
same,TGI,HT29 colon,34.6 µM
same,TGI,COLO 205 colon,> 51.1 µM
same,TGI,NCI-H522 lung,7.43 µM
same,TGI,CCRF-CEM leukemia,3.94 µM
same,TGI,MOLT-4 leukemia,4.53 µM
same,TGI,M14 melanoma,21.1 µM
same,TGI,PC-3 prostate,30.7 µM
same,TGI,NCI-H226 lung,39.1 µM
same,TGI,A549 NSCLC,41.6 µM
same,TGI,ACHN renal,23.9 µM
same,TGI,OVCAR-8 ovarian,19.6 µM
same,TGI,MDA-N,32.9 µM
same,TGI,SNB-75 CNS,28.1 µM
same,TGI,SW-620 colon,9.17 µM
same,TGI,A498 renal,33.8 µM
same,TGI,SK-OV-3 ovarian,32.3 µM
same,TGI,DU-145 prostate,17 µM
same,TGI,SK-MEL-5 melanoma,22.5 µM
same,TGI,SF-295 CNS,33.9 µM
same,TGI,SF-268 CNS,50.4 µM
same,TGI,HOP-62 NSCLC,33.2 µM
same,TGI,SK-MEL-28 melanoma,23.2 µM
same,TGI,OVCAR-3 ovarian,28.3 µM
same,TGI,EKVX NSCLC,38.4 µM
same,TGI,UACC-257 melanoma,22.4 µM
same,TGI,MALME-3M melanoma,18.4 µM
same,TGI,RPMI-8226 leukemia,> 25 µM
same,TGI,TK-10 renal,24.1 µM
same,TGI,NCI-H460 lung,43.3 µM
same,TGI,LOX IMVI melanoma,10.6 µM
same,TGI,HL-60(TB) leukemia,> 21.3 µM
same,TGI,UACC-62 melanoma,19 µM
same,TGI,K-562 leukemia,10.7 µM
same,TGI,MDA-MB-231 breast,39.3 µM
same,TGI,SK-MEL-2 melanoma,27.4 µM
same,TGI,HCC-2998 colon,30.4 µM
same,TGI,KM12 colon,36 µM
same,TGI,SF-539 CNS,34.5 µM
same,TGI,SR leukemia,> 21.8 µM
same,TGI,U251 CNS,30.5 µM
same,TGI,OVCAR-5 ovarian,32.4 µM
same,TGI,SNB-19 CNS,37.7 µM
same,TGI,UO-31 renal,28.4 µM
same,TGI,IGROV1 ovarian,31.6 µM
same,TGI,NCI/ADR-RES ovarian,50.1 µM
same,TGI,HS 578T breast,36.4 µM
same,TGI,HCT-116 colon,19.2 µM
same,TGI,NCI-H23 lung,30.3 µM
same,TGI,T-47D breast,> 59.7 µM
same,TGI,MDA-MB-435,28 µM
same,TGI,SN12C renal,27 µM
same,TGI,RXF 393 renal,5.69 µM
same,TGI,786-0 renal,17 µM
same,TGI,OVCAR-4 ovarian,43.6 µM
CN(CCN(C)CCN(C)C(=O)Cc1ccc(Cl)c(Cl)c1)CCN1CCCC1,TGI,CAKI-1 renal,> 100 µM
same,TGI,BT-549 breast,77.1 µM
same,TGI,HCT-15 colon,> 100 µM
same,TGI,MCF7 breast,57.2 µM
same,TGI,HOP-92 NSCLC,24.1 µM
same,TGI,HT29 colon,27.3 µM
same,TGI,COLO 205 colon,33.8 µM
same,TGI,NCI-H522 lung,41.4 µM
same,TGI,CCRF-CEM leukemia,30.9 µM
same,TGI,MOLT-4 leukemia,29.1 µM
same,TGI,M14 melanoma,> 100 µM
same,TGI,PC-3 prostate,> 100 µM
same,TGI,NCI-H226 lung,61.3 µM
same,TGI,A549 NSCLC,> 100 µM
same,TGI,ACHN renal,> 100 µM
same,TGI,OVCAR-8 ovarian,> 100 µM
same,TGI,MDA-N,25.1 µM
same,TGI,SNB-75 CNS,73.3 µM
same,TGI,SW-620 colon,> 100 µM
same,TGI,A498 renal,32 µM
same,TGI,SK-OV-3 ovarian,> 100 µM
same,TGI,DU-145 prostate,> 100 µM
same,TGI,SK-MEL-5 melanoma,35.3 µM
same,TGI,SF-295 CNS,41.5 µM
same,TGI,SF-268 CNS,> 100 µM
same,TGI,HOP-62 NSCLC,86.1 µM
same,TGI,SK-MEL-28 melanoma,6.07 µM
same,TGI,OVCAR-3 ovarian,> 100 µM
same,TGI,EKVX NSCLC,> 100 µM
same,TGI,UACC-257 melanoma,17.5 µM
same,TGI,MALME-3M melanoma,36.6 µM
same,TGI,RPMI-8226 leukemia,22.8 µM
same,TGI,TK-10 renal,58.1 µM
same,TGI,NCI-H460 lung,82.1 µM
same,TGI,LOX IMVI melanoma,36.3 µM
same,TGI,HL-60(TB) leukemia,61.3 µM
same,TGI,UACC-62 melanoma,16.6 µM
same,TGI,K-562 leukemia,12.9 µM
same,TGI,MDA-MB-231 breast,53.9 µM
same,TGI,SK-MEL-2 melanoma,31.8 µM
same,TGI,HCC-2998 colon,26 µM
same,TGI,KM12 colon,> 100 µM
same,TGI,SF-539 CNS,46.2 µM
same,TGI,SR leukemia,34.1 µM
same,TGI,U251 CNS,41.3 µM
same,TGI,OVCAR-5 ovarian,> 100 µM
same,TGI,SNB-19 CNS,> 100 µM
same,TGI,UO-31 renal,3.93 µM
same,TGI,IGROV1 ovarian,> 100 µM
same,TGI,NCI/ADR-RES ovarian,> 100 µM
same,TGI,HS 578T breast,> 100 µM
same,TGI,HCT-116 colon,> 100 µM
same,TGI,NCI-H23 lung,> 100 µM
same,TGI,T-47D breast,51.7 µM
same,TGI,MDA-MB-435,21.6 µM
same,TGI,SN12C renal,> 100 µM
same,TGI,RXF 393 renal,39 µM
same,TGI,786-0 renal,49.6 µM
same,TGI,OVCAR-4 ovarian,> 100 µM

# Reference: PubChem BioAssay (NCI)
